{"source": "patent US20120322843A1", "about": "“GENOTYPE SPECIFIC METHODS FOR TREATING HUMAN SUBJECTS USING 4-METHYLPYRAZOLE” (RAPTOR THERAPEUTICS INC., priority 2009, published 2012)", "test_system": "human subjects with reduced or absent ALDH2 activity", "test": "Blinded, intra-subject controlled, single dose study of oral 4-MP given before ethanol; serum acetaldehyde measured by HPLC/MS/MS and compared by ALDH2/ADH2 genotype", "format": "in vivo", "procedure": "A blinded, intra-subject controlled, single dose, dose escalation study of 4-MP for mitigation of acetaldehyde related toxicity in subjects with symptoms of inborn altered ethanol metabolism with concomitant ethanol exposure was undertaken.\nTwenty-four subjects (n=24) were randomly selected and orally administered 1 mg/kg, 3 mg/kg, or 5 mg/kg of 4-MP, followed 30 minutes later by an oral dose of 20% ethanol ([…]).\nUsing the same protocol, wherein 4-MP was replaced with placebo, each of the twenty-four randomly selected subjects served as its own control.\nThe twenty-four randomly selected subjects were then subjected to blood sampling, and the sampled blood analyzed for acetaldehyde levels at select time points following ethanol consumption.\nFor acetaldehyde analysis, blood samples were prepared by dilution with an internal standard (acetaldehyde-d4), with derivatization of acetaldehyde with dinitrophenyl hydrazine in hydrochloric acid, liquid-liquid portioning and solvent exchange. The derivatization forms an acetaldehyde-dinitrophenyl hydrazine (DNPH) derivative which dramatically increases the boiling point of the molecule and thus its relative stability compared to the acetaldehyde itself (Nagy et al., Rapid Communications in Mass Spectrometry 2004, 18, 2473-2478). The derivatized analytes were separated using a Jones Chromatography (Grace-Vydac). 50 mm×2.1 mm, 3 μm column held in an oven set at 28° C. Two mobile phases were used in a gradient consisting of 30:70 acetonitrile:water versus 90:10 acetonitrile:water with 0.1% formic acid. The derivatized analyte was detected on a High Performance Liquid Chromatograph equipped with a Mass Spectrometer (HPLC/MS/MS). Quantitation was performed using a linear regression curve fit of impurities standards with 1/× weighting, prepared from dilutions of acetaldehyde in water. Samples and standards were injected at 2 μL.\nAll […] subjects were then genotyped for ALDH2 and ADH2 at the Alcohol Research Center at Indiana University using (i) genomic DNA isolation and (ii) TaqMan assay for allelic discrimination. • i. Genomic DNA isolation: DNA was first isolated using the “Hot:SHOT” method for isolating PCR quality genomic DNA (Truett et al., Biotechniques 2000, 29(1), 52, 54). Briefly, blood blotted on filter paper (3 mm circle) was placed in the well of a 96-well plate and mixed with 75 μL 25 mM NaOH/0.3 mM EDTA solution and heated to 95° C. for 40 minutes, followed by neutralization with 75 μL 40 mM Tris-HCl ([…]) solution. 1-5 microliters were used for each PCR. • ii. TaqMan Assay for Allelic Discrimination: The allelic discrimination assay used a multiplexed (more than one primer/probe pair per reaction), end-point (data is collected at the end of the PCR process) assay. Each assay mix contained two different TaqMan probes (Applied BioSystems, Foster City, Calif.), labeled with VIC or FAM fluorescent reporter dye, which bound preferentially to one of the alleles. The genotype of each sample was determined by the fluorescence levels of the reporter dyes and was clustered on a graph with other samples of the same genotype. Each reaction contained 5 μL of 2×TaqMan Universal PCR Mastermix, No AmpErase UNG, 3.75 μL of water, 0.25 μL, of 40× Assay Mix, and 1 μL of DNA sample. Eight or eleven controls were included on each 96-well plate: two no template controls, two or three heterozygous samples, and two or three of each of the homozygous samples. Thermocycling was carried out in ND Research PTC-200 thermocyclers. The PCR products were then analyzed in an ABI PRISM® 7300 Sequence Detection System (SOS) instrument. SDS Software 1.3.1 converted the raw data to pure dye components and ploted the results of the allelic discrimination on a scatter plot of Allele X versus Allele Y (e.g. ADH2*1 versus ADH2*2); each genotype appeared on the graph as a cluster of points. […]", "key": {"[1]": {"conditions": "Groups A and D (reduced ALDH2 activity, ADH2*1/ADH2*1 or ADH2*1/ADH2*2), n=6, 1 mg/kg 4-MP oral, then ethanol"}, "[2]": {"conditions": "Groups A, B, D, F and G (reduced or absent ALDH2 activity), n=23, 1, 3 or 5 mg/kg 4-MP"}, "[3]": {"conditions": "Groups F and G (reduced or absent ALDH2 activity, ADH2*2/ADH2*2), n=6, 1 mg/kg 4-MP oral, then ethanol"}}, "note": "Values joined by “and” are separate entries in the source; they are usually repeats but may differ in a detail not shown here. Equal entries are not always repeated."}
{"smiles": "Cc1cn[nH]c1", "note": "[4-MP, 4-methylpyrazole]", "values": [{"measurement": "Acetaldehyde AUC0-8H mean", "setting": "[1]", "value": "162 ± 18.7 µg·h/mL and 162 µg·h/mL"}, {"measurement": "Cmax mean (serum acetaldehyde)", "setting": "[1]", "value": 41.3, "unit": "µg/mL"}, {"measurement": "Peak mean acetaldehyde concentration in the blood (FIG. 2)", "setting": "Groups A and D, 1 mg/kg 4-MP", "value": "can be reduced"}, {"measurement": "Reduction in Cmax mean relative to placebo", "setting": "Groups A and D, 1 mg/kg 4-MP", "value": "approximately 36%"}, {"measurement": "Acetaldehyde AUC0-8H mean", "setting": "[2]", "value": 182, "unit": "µg·h/mL"}, {"measurement": "Cmax mean (serum acetaldehyde)", "setting": "[2]", "value": 64.2, "unit": "µg/mL"}, {"measurement": "Peak mean acetaldehyde concentration in the blood (FIG. 3)", "setting": "Groups F and G (ADH2*2/ADH2*2), 1 mg/kg 4-MP", "value": "not reduced"}, {"measurement": "Acetaldehyde AUC0-8H mean", "setting": "[3]", "value": 221, "unit": "µg·h/mL"}, {"measurement": "Cmax mean (serum acetaldehyde)", "setting": "[3]", "value": 89.2, "unit": "µg/mL"}, {"measurement": "Peak mean acetaldehyde concentration in the blood (FIG. 4)", "setting": "all subjects with reduced or absent ALDH2 activity, 1, 3 or 5 mg/kg 4-MP", "value": "not reduced"}]}
